Measurements reported in ChEMBL document CHEMBL1201862, “PubChem BioAssay data set” (2004).
Calls of active or inactive are those of the source.

Columns and labels:
Hexokinase HKDC1 = target: T1, Hexokinase HKDC1 (Homo sapiens, UniProt Q2TB90); test: HKDC1 hexokinase inhibitors, dose response, biochemical, W721R variant (AID 504729); type: functional
T1 sequence (Q2TB90 whole entry): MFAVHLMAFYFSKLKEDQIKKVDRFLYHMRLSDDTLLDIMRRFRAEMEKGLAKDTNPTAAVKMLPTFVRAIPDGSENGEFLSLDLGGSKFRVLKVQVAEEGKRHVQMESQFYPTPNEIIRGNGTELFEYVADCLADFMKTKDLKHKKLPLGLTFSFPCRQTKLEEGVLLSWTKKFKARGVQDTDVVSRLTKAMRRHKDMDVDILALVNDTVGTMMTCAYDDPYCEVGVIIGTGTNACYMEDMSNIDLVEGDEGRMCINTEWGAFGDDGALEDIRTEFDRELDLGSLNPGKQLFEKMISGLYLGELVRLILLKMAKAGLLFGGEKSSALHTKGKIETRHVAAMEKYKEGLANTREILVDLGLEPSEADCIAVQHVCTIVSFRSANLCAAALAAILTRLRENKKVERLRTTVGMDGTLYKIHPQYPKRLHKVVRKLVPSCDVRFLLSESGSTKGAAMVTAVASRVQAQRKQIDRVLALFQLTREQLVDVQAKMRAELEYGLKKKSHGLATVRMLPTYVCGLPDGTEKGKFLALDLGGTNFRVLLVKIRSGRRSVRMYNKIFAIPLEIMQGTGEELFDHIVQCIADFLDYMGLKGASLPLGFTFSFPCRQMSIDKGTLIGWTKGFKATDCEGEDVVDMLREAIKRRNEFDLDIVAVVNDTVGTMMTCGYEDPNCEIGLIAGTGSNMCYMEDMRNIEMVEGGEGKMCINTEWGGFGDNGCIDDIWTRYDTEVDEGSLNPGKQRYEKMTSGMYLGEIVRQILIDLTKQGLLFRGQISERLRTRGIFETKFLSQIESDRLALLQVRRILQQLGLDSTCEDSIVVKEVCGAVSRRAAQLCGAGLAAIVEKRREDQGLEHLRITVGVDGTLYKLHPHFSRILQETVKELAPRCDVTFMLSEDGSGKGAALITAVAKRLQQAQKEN

Cysteine protease ATG4B = target: T2, Cysteine protease ATG4B (Homo sapiens, UniProt Q9Y4P1); type: functional;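 further: Fluorescence-based dose-response confirmation assay measuring inhibition of ATG4B activity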
T2 sequence (Q9Y4P1 whole entry): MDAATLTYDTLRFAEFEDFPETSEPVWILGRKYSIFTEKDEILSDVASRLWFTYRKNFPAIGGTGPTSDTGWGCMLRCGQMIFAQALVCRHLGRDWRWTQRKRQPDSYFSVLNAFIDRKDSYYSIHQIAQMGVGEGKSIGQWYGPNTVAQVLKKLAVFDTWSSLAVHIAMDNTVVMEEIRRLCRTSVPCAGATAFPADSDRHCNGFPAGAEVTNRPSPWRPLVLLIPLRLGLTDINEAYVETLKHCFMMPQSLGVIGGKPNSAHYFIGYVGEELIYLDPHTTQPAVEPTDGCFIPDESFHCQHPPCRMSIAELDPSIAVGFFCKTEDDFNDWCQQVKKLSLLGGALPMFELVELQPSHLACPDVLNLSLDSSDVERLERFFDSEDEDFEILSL

Phospholipase A2 = Phospholipase A2 (Homo sapiens, UniProt P04054); type: functional;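 further: confirmatory dose-response counterscreen on phospholipase A2, testing hits that came from an ultra-high-throughput screen for ATG4B inhibitors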
Vero = Vero cell cytotoxicity, cytotoxicity control for flavivirus capping enzyme inhibitors (AID 588742); type: functional; conditions: Chlorocebus sabaeus
Genome polyprotein = Genome polyprotein (dengue virus type 2, UniProt P29990); test: Dengue-2 NS5 methyltransferase inhibitors, primary screen, biochemical, confirmation dose response (AID 588689); type: functional
[1] = target: Dual specificity tyrosine-phosphorylation-regulated kinase 1A (Rattus norvegicus, UniProt Q63470); type: biochemical, Homo sapiens
[2] = target: Ras and Rab interactor 1/Tyrosine-protein kinase ABL1 (Homo sapiens, UniProt P00519+Q13671); type: functional;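 further: biochemical TR-FRET dose-response test measuring inhibition of binding between Rin1 and Abl proteins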
[3] = target: Mitochondrial peptide methionine sulfoxide reductase (Bos taurus, UniProt P54149); test: Absorbance-based biochemical high throughput dose response assay for activators of Methionine sulfoxide reductase A (MsrA).; type: functional
Paired box protein Pax-8 = Paired box protein Pax-8 (Homo sapiens, UniProt Q06710); test: inhibitors of PAX8-driven TPO luciferase reporter, dose response, RMG-I cells, cherry-pick (AID 687027); type: functional, cell-based;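 further: luciferase reporter driven by Pax8 target thyroperoxidase promoter measured by SteadyGlo luminescence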
[4] = target: T3, Histone-lysine N-methyltransferase NSD2 (Homo sapiens, UniProt O96028); type: biochemical
T3 sequence (O96028 whole entry): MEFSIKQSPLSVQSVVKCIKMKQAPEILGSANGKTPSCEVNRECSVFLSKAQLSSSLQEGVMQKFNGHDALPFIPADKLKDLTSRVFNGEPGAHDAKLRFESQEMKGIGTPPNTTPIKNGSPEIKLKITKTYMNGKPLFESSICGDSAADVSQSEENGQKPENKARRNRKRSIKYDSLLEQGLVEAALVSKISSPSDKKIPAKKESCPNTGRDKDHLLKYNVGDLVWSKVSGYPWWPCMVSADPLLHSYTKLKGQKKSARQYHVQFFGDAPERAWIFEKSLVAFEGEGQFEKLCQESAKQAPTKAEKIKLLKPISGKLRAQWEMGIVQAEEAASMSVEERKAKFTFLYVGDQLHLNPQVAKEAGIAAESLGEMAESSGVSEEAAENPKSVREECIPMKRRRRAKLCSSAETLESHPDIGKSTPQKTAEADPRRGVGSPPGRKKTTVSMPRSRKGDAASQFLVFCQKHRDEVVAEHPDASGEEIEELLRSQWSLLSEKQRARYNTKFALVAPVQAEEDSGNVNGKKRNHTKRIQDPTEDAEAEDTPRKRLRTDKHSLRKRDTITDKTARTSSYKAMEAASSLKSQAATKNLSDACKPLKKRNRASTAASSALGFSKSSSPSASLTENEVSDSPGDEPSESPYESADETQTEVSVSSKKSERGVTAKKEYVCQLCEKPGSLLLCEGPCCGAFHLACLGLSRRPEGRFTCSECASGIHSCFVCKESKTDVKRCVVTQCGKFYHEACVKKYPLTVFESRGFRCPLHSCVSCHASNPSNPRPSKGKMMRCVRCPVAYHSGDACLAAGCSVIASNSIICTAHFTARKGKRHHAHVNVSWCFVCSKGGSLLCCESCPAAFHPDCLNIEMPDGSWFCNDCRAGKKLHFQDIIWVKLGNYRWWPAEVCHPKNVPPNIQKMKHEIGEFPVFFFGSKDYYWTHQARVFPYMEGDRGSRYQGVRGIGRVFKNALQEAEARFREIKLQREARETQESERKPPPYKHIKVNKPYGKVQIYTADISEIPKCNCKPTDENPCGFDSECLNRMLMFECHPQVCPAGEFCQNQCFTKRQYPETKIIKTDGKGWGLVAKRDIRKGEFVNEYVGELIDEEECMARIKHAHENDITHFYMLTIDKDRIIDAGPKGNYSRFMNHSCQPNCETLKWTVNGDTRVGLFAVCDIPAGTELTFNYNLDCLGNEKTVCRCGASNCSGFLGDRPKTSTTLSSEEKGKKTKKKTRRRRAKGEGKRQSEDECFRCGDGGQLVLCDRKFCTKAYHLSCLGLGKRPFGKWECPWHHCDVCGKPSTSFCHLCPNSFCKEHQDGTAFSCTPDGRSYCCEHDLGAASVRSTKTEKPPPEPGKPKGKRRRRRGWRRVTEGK

[5] = target: T4, Tyrosyl-DNA phosphodiesterase 2 (Homo sapiens, UniProt O95551); test: human TDP2 enzyme inhibitors, dose response, biochemical, epi absorbance, IC50 (AID 743297)
T4 sequence (O95551 whole entry): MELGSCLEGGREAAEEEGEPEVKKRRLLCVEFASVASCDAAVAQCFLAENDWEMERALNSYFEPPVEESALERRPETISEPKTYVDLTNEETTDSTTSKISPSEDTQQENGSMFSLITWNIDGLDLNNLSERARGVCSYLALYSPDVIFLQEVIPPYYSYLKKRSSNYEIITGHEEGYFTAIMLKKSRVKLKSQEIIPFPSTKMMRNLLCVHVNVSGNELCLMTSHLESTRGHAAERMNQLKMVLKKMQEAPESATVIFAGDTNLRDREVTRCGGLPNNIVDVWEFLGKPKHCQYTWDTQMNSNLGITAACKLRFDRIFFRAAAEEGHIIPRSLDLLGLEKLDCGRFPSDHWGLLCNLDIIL

[6] = non-specific cell cytotoxicity, dose response, cytotoxicity control for PAX8 inhibitor project, plate reader, dry powder samples (AID 743021); type: functional, cell-based
[7] = THP-1 cell cytotoxicity, dose response, cytotoxicity control for Vif-APOBEC3G degradation inhibitor project, THP-1 cells (AID 1117359); type: functional; conditions: Human immunodeficiency virus 1, THP-1

Chain of Paired box protein Pax-8 (Q06710 whole entry): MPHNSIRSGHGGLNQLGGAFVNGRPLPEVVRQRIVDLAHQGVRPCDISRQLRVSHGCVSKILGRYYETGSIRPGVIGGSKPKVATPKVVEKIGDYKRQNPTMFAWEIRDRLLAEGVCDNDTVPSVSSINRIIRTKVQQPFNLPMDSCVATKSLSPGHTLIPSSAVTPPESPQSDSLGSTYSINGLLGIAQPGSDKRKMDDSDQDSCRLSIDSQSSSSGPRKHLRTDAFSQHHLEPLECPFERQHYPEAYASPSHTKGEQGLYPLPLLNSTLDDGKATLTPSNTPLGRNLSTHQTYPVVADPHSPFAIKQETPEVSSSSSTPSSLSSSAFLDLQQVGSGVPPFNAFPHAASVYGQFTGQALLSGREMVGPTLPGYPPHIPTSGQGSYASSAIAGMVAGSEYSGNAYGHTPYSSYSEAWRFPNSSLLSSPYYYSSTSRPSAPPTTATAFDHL
Chain of Phospholipase A2 (P04054 whole entry): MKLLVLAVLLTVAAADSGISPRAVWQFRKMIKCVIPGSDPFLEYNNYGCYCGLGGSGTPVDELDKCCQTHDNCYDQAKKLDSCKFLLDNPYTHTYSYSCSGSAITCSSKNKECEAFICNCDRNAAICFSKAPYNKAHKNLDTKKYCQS
Chain of Ras and Rab interactor 1/Tyrosine-protein kinase ABL1 (P00519 whole entry): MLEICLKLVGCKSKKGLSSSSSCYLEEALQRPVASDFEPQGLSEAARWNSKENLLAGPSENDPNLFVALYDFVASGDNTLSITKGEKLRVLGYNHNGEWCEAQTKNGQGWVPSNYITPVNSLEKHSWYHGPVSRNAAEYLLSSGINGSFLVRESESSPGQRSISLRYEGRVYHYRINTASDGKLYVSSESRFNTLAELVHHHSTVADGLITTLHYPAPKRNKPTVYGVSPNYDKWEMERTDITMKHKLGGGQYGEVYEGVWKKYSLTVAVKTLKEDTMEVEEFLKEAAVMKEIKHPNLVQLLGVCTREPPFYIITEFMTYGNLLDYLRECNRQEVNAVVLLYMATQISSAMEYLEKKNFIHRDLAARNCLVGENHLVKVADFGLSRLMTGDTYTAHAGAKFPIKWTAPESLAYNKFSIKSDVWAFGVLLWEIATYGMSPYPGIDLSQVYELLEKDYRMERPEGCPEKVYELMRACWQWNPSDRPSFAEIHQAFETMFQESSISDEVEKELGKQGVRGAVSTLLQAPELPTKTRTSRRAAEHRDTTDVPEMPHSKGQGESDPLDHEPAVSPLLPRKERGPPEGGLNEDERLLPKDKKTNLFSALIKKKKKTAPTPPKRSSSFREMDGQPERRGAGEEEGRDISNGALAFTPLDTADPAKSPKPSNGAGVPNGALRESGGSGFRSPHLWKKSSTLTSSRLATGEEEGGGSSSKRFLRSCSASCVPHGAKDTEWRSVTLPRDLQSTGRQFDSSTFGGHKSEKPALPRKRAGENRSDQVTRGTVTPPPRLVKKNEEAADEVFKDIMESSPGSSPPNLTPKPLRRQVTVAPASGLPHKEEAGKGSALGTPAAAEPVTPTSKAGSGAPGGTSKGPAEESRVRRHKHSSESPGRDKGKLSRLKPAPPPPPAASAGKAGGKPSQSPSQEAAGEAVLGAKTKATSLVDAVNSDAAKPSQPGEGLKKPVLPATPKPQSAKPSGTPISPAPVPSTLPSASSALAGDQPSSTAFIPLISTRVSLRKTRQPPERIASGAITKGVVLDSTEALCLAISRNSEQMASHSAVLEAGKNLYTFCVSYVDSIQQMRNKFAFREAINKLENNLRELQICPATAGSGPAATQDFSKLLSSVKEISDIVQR
Chain of Ras and Rab interactor 1/Tyrosine-protein kinase ABL1 (Q13671 whole entry): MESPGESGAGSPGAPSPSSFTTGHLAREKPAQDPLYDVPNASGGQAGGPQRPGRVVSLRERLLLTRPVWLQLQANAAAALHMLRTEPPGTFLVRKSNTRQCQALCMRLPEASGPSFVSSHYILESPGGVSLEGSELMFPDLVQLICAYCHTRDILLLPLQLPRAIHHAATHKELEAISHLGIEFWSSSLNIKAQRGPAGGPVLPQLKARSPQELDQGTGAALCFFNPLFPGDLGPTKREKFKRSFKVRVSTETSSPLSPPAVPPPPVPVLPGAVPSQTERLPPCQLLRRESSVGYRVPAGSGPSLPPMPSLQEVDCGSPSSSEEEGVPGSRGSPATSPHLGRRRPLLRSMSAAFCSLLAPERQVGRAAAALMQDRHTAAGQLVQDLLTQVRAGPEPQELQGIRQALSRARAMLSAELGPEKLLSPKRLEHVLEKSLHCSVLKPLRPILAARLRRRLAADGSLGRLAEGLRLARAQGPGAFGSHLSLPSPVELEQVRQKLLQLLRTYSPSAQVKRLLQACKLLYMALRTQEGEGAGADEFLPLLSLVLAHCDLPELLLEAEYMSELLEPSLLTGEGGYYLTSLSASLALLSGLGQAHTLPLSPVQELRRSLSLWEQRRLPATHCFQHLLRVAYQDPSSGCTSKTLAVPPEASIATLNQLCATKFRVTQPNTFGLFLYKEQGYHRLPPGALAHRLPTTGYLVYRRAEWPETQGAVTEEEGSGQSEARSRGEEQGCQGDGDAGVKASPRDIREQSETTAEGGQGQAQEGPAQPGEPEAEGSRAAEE
Chain of Mitochondrial peptide methionine sulfoxide reductase (P54149 whole entry): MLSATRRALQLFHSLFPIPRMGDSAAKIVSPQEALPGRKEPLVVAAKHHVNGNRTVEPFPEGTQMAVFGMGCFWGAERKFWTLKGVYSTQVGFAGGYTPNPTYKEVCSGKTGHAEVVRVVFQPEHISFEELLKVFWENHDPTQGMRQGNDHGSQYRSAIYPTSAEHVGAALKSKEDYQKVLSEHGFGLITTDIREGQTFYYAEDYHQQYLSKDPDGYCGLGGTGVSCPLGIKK
Chain of Genome polyprotein (P29990 2492-3391 limits assumed): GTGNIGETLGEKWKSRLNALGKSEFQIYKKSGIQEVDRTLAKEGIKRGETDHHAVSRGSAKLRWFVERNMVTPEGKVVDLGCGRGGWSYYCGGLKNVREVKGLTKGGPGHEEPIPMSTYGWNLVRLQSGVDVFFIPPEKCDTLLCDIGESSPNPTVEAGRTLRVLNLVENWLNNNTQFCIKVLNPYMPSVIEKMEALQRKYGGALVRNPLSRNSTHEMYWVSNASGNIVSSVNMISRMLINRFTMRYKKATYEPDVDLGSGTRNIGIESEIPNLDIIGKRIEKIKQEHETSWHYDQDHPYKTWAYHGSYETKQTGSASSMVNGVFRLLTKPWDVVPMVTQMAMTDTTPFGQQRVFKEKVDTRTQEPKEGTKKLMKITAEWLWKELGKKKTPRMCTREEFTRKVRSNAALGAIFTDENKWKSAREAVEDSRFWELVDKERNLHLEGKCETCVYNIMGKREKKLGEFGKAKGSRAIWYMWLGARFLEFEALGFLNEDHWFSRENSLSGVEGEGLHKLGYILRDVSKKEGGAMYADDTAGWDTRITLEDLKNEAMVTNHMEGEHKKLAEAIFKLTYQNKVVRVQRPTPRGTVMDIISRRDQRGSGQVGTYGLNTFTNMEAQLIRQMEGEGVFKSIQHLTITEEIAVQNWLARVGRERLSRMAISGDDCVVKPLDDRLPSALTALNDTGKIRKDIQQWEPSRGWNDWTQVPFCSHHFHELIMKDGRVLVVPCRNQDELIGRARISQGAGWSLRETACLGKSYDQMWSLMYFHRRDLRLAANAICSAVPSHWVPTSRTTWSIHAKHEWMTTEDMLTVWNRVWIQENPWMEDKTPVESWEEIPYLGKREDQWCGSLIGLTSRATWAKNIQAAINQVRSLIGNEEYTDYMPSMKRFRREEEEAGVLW

Q: What does the source list for `COC1=CC(=O)c2c(ccc3ncnc(N)c23)C1=O`?
A: IC50 (Hexokinase HKDC1): 1.56 µM (active); IC50 (Cysteine protease ATG4B): 6.81 µM (active); IC50 (Phospholipase A2): > 80 µM (inactive); CC50 (Vero): 4.63 µM (active); IC50 (Genome polyprotein): 62.4 µM (active); AC50 [1]: 2.53 µM (active); IC50 [2]: > 73.4 µM (inactive); EC50 [3]: 14.1 µM (inactive); AC50 (Paired box protein Pax-8): 1.06 µM (active); AC50 [4]: 1.28 µM (active); IC50 [5]: 0.842 µM (active); AC50 [6]: 9.49 µM (active); CC50 [7]: 10.4 µM (active)
